Experimental data reported in BigSolDB 2.1.

CCCCCCCC(=O)NCC(=O)O
Details	solubility (mole fraction)
in 2-butanone, 273.15 K	0.0123
in 2-butanone, 278.15 K	0.0153
in 2-butanone, 283.15 K	0.0199
in 2-butanone, 288.35 K	0.0266
in 2-butanone, 293.05 K	0.0304
in 2-butanone, 298.15 K	0.0379
in 2-butanone, 303.15 K	0.0457
in 2-butanone, 308.05 K	0.0561
in 2-butanone, 313.25 K	0.0667
in 2-butanone, 317.65 K	0.0806
in 2-butanone, 323.15 K	0.0951
in 2-pentanone, 273.15 K	0.00491
in 2-pentanone, 278.15 K	0.00666
in 2-pentanone, 283.15 K	0.00984
in 2-pentanone, 288.35 K	0.0148
in 2-pentanone, 293.05 K	0.0178
in 2-pentanone, 298.15 K	0.0244
in 2-pentanone, 303.15 K	0.032
in 2-pentanone, 308.05 K	0.0431
in 2-pentanone, 313.25 K	0.0552
in 2-pentanone, 317.65 K	0.0723
in 2-pentanone, 323.15 K	0.0915
in acetone, 273.15 K	0.0146
in acetone, 278.15 K	0.0189
in acetone, 283.15 K	0.0261
in acetone, 288.35 K	0.0369
in acetone, 293.05 K	0.0432
in acetone, 298.15 K	0.0562
in acetone, 303.15 K	0.0706
in acetone, 308.05 K	0.0905
in acetone, 313.25 K	0.111
in acetone, 317.65 K	0.14
in acetone, 323.15 K	0.171
in cyclohexanone, 273.15 K	0.0112
in cyclohexanone, 278.15 K	0.0149
in cyclohexanone, 283.15 K	0.0214
in cyclohexanone, 288.35 K	0.0315
in cyclohexanone, 293.05 K	0.0378
in cyclohexanone, 298.15 K	0.0508
in cyclohexanone, 303.15 K	0.0656
in cyclohexanone, 308.05 K	0.0866
in cyclohexanone, 313.25 K	0.11
in cyclohexanone, 317.65 K	0.141
in cyclohexanone, 323.15 K	0.177
in cyclopentanone, 273.15 K	0.0144
in cyclopentanone, 278.15 K	0.019
in cyclopentanone, 283.15 K	0.0269
in cyclopentanone, 288.35 K	0.039
in cyclopentanone, 293.05 K	0.0464
in cyclopentanone, 298.15 K	0.0616
in cyclopentanone, 303.15 K	0.0789
in cyclopentanone, 308.05 K	0.103
in cyclopentanone, 313.25 K	0.129
in cyclopentanone, 317.65 K	0.164
in cyclopentanone, 323.15 K	0.203
in ethanol, 273.15 K	0.0116
in ethanol, 278.15 K	0.0176
in ethanol, 283.15 K	0.0266
in ethanol, 288.35 K	0.0401
in ethanol, 293.05 K	0.0575
in ethanol, 298.15 K	0.0833
in ethanol, 303.15 K	0.119
in ethanol, 308.05 K	0.168
in ethanol, 313.25 K	0.237
in ethanol, 317.65 K	0.314
in ethanol, 323.15 K	0.447
in ethyl acetate, 273.15 K	0.00218
in ethyl acetate, 278.15 K	0.00301
in ethyl acetate, 283.15 K	0.00455
in ethyl acetate, 288.35 K	0.00705
in ethyl acetate, 293.05 K	0.00866
in ethyl acetate, 298.15 K	0.0121
in ethyl acetate, 303.15 K	0.0162
in ethyl acetate, 308.05 K	0.0223
in ethyl acetate, 313.25 K	0.029
in ethyl acetate, 317.65 K	0.0389
in ethyl acetate, 323.15 K	0.0502
in ethyl formate, 273.15 K	0.0016
in ethyl formate, 278.15 K	0.00226
in ethyl formate, 283.15 K	0.00348
in ethyl formate, 288.35 K	0.00555
in ethyl formate, 293.05 K	0.00688
in ethyl formate, 298.15 K	0.00981
in ethyl formate, 303.15 K	0.0133
in ethyl formate, 308.05 K	0.0186
in ethyl formate, 313.25 K	0.0247
in ethyl formate, 317.65 K	0.0336
in ethyl formate, 323.15 K	0.0439
in isobutanol, 273.15 K	0.0204
in isobutanol, 278.15 K	0.0259
in isobutanol, 283.15 K	0.0327
in isobutanol, 288.35 K	0.0412
in isobutanol, 293.05 K	0.0503
in isobutanol, 298.15 K	0.0622
in isobutanol, 303.15 K	0.0762
in isobutanol, 308.05 K	0.0919
in isobutanol, 313.25 K	0.112
in isobutanol, 317.65 K	0.131
in isobutanol, 323.15 K	0.159
in isopentanol, 273.15 K	0.0276
in isopentanol, 278.15 K	0.0347
in isopentanol, 283.15 K	0.0434
in isopentanol, 288.35 K	0.0543
in isopentanol, 293.05 K	0.0657
in isopentanol, 298.15 K	0.0805
in isopentanol, 303.15 K	0.0978
in isopentanol, 308.05 K	0.117
in isopentanol, 313.25 K	0.142
in isopentanol, 317.65 K	0.166
in isopentanol, 323.15 K	0.2
in isopropanol, 273.15 K	0.0153
in isopropanol, 278.15 K	0.0193
in isopropanol, 283.15 K	0.0239
in isopropanol, 288.35 K	0.0298
in isopropanol, 293.05 K	0.0362
in isopropanol, 298.15 K	0.0441
in isopropanol, 303.15 K	0.0533
in isopropanol, 308.05 K	0.064
in isopropanol, 313.25 K	0.0769
in isopropanol, 317.65 K	0.0895
in isopropanol, 323.15 K	0.108
in methanol, 273.15 K	0.0347
in methanol, 278.15 K	0.0478
in methanol, 283.15 K	0.0653
in methanol, 288.35 K	0.0891
in methanol, 293.05 K	0.117
in methanol, 298.15 K	0.156
in methanol, 303.15 K	0.204
in methanol, 308.05 K	0.263
in methanol, 313.25 K	0.343
in methanol, 317.65 K	0.425
in methanol, 323.15 K	0.555
in methyl acetate, 273.15 K	0.00203
in methyl acetate, 278.15 K	0.00288
in methyl acetate, 283.15 K	0.00448
in methyl acetate, 288.35 K	0.00718
in methyl acetate, 293.05 K	0.00895
in methyl acetate, 298.15 K	0.0128
in methyl acetate, 303.15 K	0.0174
in methyl acetate, 308.05 K	0.0245
in methyl acetate, 313.25 K	0.0327
in methyl acetate, 317.65 K	0.0444
in methyl acetate, 323.15 K	0.0586
in n-butanol, 273.15 K	0.0228
in n-butanol, 278.15 K	0.0313
in n-butanol, 283.15 K	0.0425
in n-butanol, 288.35 K	0.0577
in n-butanol, 293.05 K	0.0755
in n-butanol, 298.15 K	0.0993
in n-butanol, 303.15 K	0.13
in n-butanol, 308.05 K	0.167
in n-butanol, 313.25 K	0.217
in n-butanol, 317.65 K	0.268
in n-butanol, 323.15 K	0.347
in n-pentanol, 273.15 K	0.0226
in n-pentanol, 278.15 K	0.0308
in n-pentanol, 283.15 K	0.0413
in n-pentanol, 288.35 K	0.0559
in n-pentanol, 293.05 K	0.0724
in n-pentanol, 298.15 K	0.095
in n-pentanol, 303.15 K	0.123
in n-pentanol, 308.05 K	0.157
in n-pentanol, 313.25 K	0.202
in n-pentanol, 317.65 K	0.249
in n-pentanol, 323.15 K	0.32
in n-propanol, 273.15 K	0.0174
in n-propanol, 278.15 K	0.0254
in n-propanol, 283.15 K	0.0363
in n-propanol, 288.35 K	0.0522
in n-propanol, 293.05 K	0.0715
in n-propanol, 298.15 K	0.1
in n-propanol, 303.15 K	0.137
in n-propanol, 308.05 K	0.185
in n-propanol, 313.25 K	0.251
in n-propanol, 317.65 K	0.323
in n-propanol, 323.15 K	0.439
